In patent publication US11998595B2, “Telomerase polypeptide vaccine for treating cancer” (Ultimovacs AS, priority 2010, dated 2024):

Experiments:
[1] = test system: pancreas cancer patient; assay: Clinical course of pancreas cancer patient; assay type: in vivo, human
Experimental: The vaccine consisted of 5×10^6 autologous monocyte-derived dendritic cells loaded with hTERT mRNA. The patient received 4 weekly injections followed by monthly booster injections.
Adverse events were recorded and graded according to the NCI-common toxicity criteria, as previously reported (Kyte et al, 2006 Gene therapy). […] Objective tumour response was assessed by clinical examination and CT scans prior to start of vaccination and every 3 months during the vaccination. The tumour response was classified according to the Response Evaluation Criteria in Solid Tumors (RECIST) (Therasse P et al, 2000).

[2] = test system: CD4+ T-cell clones; assay: Peptide-specific T-cell clones from patients (HLA class II allele, peptide titration); assay type: cell-based, human
From the text: A value above 2 is considered as a positive response.
T-cell clones specific for all of the peptides of 15- or 30-amino acids shown in Table 1 have also been obtained from patients. […] This is important in order to be able to induce strong immune response in vivo where peptide concentrations are lower.
In addition, the 15- and 30-mer peptides listed in Table 1 show reactivity in nearly all patients tested, which means they are promiscuous with respect to the HLA class II alleles on which they are presented and that they are applicable to nearly the whole population without any need for HLA-screening (see Table 2).

[3] = test system: CD8+ T cells (patient PBMCs); assay: Pentamer staining of hTERT-specific CD8+ T cells by flow cytometry; assay type: cell-based, human; details: patients of Examples 1 to 8
[4] = test system: T cells (patient PBMCs); assay: T-cell proliferation assay (3H-thymidine) of patient PBMC/T cells with hTERT peptides or transfected DC; assay type: cell-based, human; details: for response of clinical non-responders: GV1001-vaccinated; for immunological responses in clinical responders: patients responding / 7 clinical responders; for immunological responses in clinical non-responders: patients responding / 10 clinical non-responders
Experimental: FIG. 1 is a bar graph summarising hTERT T-cell responses detected in pancreas cancer patient vaccinated with DC transfected with hTERT mRNA. In samples from various time points throughout a vaccination schedule, T-cell responses against 24 overlapping hTERT 15-mer peptides were detected. Proliferation in response to peptide-loaded PBMC was measured by ^3H-thymidine incorporation. A stimulation index of >2 is considered an immune response.
Peripheral blood mononuclear cells (PBMCs) were obtained prior to the four standard vaccinations, after 5 weeks and after 12 weeks. PBMCs were also obtained before each monthly booster vaccination. The PBMCs were isolated and frozen as previously described (Kyte et al, 2005). Thawed PBMCs were stimulated once in vitro with tDCs (not with mockDCs) and cultured and then tested in T cell proliferation assays (^3H Thymidine) as previously described (Kyte et al 2006). The T cells were tested in triplicates. Irradiated tDCs and mock-transfected DC controls (mockDCs) were used or PBMC with or without hTERT peptide as APCs. Negative controls with T cells only were included.
PBMCs from various time points were stimulated with an overlapping hTERT 15-mer peptide library or a 30-mer hTERT peptide, all from ProImmune and then tested in proliferation assays as above using irradiated PBMCs as APCs as described in (Bernhardt et al 2006).
T-cell responses to a hTERT peptide library (including the polypeptides from Table 1) were determined for T-cells from 5 patients in addition to the patients reported in Examples 1 and 2. The methods were the same as previously described in Example 1 or in Bernhardt et al 2006. In brief, PBMCs from various time points during vaccination were stimulated with the overlapping hTERT peptide library prior to testing for specific T-cell responses in proliferation assays.
The proliferative T-cell responses of each patient to a series of peptides were then determined as explained in Example 1. The results are tabulated in Table 5 and are shown graphically in FIG. 14 in which the peptide designations are referenced in Table 6 (the results for peptides 726 and GV1001 are shown only for comparison).
Four patients who were clinical non-responders following a lung cancer diagnosis and a GV1001 (SEQ ID NO. 10) peptide vaccination were studied. These patients were all stage IV lung cancer patients vaccinated with GV1001. […] The proliferative T-cell responses of each patient to a series of peptides were determined in the same manner as in Example 1, at one time point. The peak response of each patient during the study period to peptide GV1001 is also shown which confirms that each patient responded immunologically to GV1001 vaccination.
Six patients who were clinical non-responders following a melanoma cancer diagnosis and a GV1001 peptide (SEQ ID NO. 10) vaccination were studied. These patients were all stage IV melanoma patients and included in the same GV1001 vaccination trial as melanoma patients P7 and P8 who were long term survivors (see Example 6). […] Five of the patients also experienced progressive disease and one patient, designated Melanoma P3, experienced some stabilization of the disease but still had short survival. The proliferative T-cell responses of each patient to a series of peptides were determined in the same manner as in Example 1, at one time point. The peak response of each patient during the study period to peptide GV1001 is also shown which confirms that each patient responded immunologically to GV1001 vaccination.

[5] = four stage IV lung cancer patients
[6] = patient Colon ca P1, GV1001-vaccinated, clinical responder
[7] = patient Lung ca P1, GV1001-vaccinated, clinical non-responder, one time point
[8] = patient Lung ca P2, GV1001-vaccinated, clinical non-responder, one time point
[9] = patient Lung ca P3, GV1001-vaccinated, clinical non-responder, one time point
[10] = patient Lung ca P4, GV1001-vaccinated, clinical non-responder, one time point
[11] = patient Lung ca P5, GV1001-vaccinated, clinical responder
[12] = patient Lung ca P6, DC/hTERT mRNA-vaccinated, clinical responder, high background
[13] = patient Melanoma P1, GV1001-vaccinated, clinical non-responder, one time point
[14] = patient Melanoma P2, GV1001-vaccinated, clinical non-responder, one time point
[15] = patient Melanoma P3, GV1001-vaccinated, clinical non-responder, one time point
[16] = patient Melanoma P4, GV1001-vaccinated, clinical non-responder, one time point
[17] = patient Melanoma P5, GV1001-vaccinated, clinical non-responder, one time point
[18] = patient Melanoma P6, GV1001-vaccinated, clinical non-responder, one time point
[19] = patient Melanoma P7, GV1001-vaccinated, clinical responder
[20] = patient Melanoma P8, GV1001-vaccinated, clinical responder
[21] = patient Melanoma P9, non-vaccinated, spontaneous response
[22] = patient Pancreas ca P1, DC/hTERT mRNA-vaccinated, clinical responder, high background

Molecule | response of clinical non-responders [4, 5] | proliferative T-cell response (SI) [4, 6] | proliferative T-cell response (SI) [4, 7] | proliferative T-cell response (SI) [4, 8] | proliferative T-cell response (SI) [4, 9] | proliferative T-cell response (SI) [4, 10] | proliferative T-cell response (SI) [4, 11] | proliferative T-cell response (SI) [4, 12] | proliferative T-cell response (SI) [4, 13] | proliferative T-cell response (SI) [4, 14] | proliferative T-cell response (SI) [4, 15] | proliferative T-cell response (SI) [4, 16] | proliferative T-cell response (SI) [4, 17] | proliferative T-cell response (SI) [4, 18] | proliferative T-cell response (SI) [4, 19] | proliferative T-cell response (SI) [4, 20] | proliferative T-cell response (SI) [4, 21] | proliferative T-cell response (SI) [4, 22] | immunological responses in clinical responders [4] | immunological responses in clinical non-responders [4] | also measured
Nc1ccn([C@@H]2O[C@H](CO)[C@@H](O)C2(F)F)c(=O)n1 [gemcitabine] |  |  |  |  |  |  |  |  |  |  |  |  |  |  |  |  |  |  |  |  | adverse effects ([1]; after 5 months): suspended due to adverse effects; Clinical response ([1]; before DC vaccination): disease stabilization
SVLNYERARRPGLLG (listed as Homo sapiens) [SEQ ID NO. 2] |  |  |  |  |  |  |  |  |  |  |  |  |  |  |  |  |  |  |  |  | Specific clones ([2]; HLA class II allele DR*01, 2 patients, malignant melanoma): T-cell lines; Specific clones ([2]; HLA class II allele DR*04, 3 patients, malignant melanoma): 3; Specific clones ([2]; HLA class II allele DR*08, 2 patients, malignant melanoma and lung cancer): >85
AERLTSRVKALFSVL (listed as Homo sapiens) [SEQ ID NO. 9] | very low or no response | 13.9 | 0.8 | 0.6 | 0.8 | 0.7 | 1.2 | 0.7 | 0.8 | 0.6 | 0.5 | 0.8 | 0.9 | 1.3 | 3.2 | 1 | 5.9 | 1 | 3/7 | 0/10 | patients with CTL responses shown by pentamer analysis [3]: 3; response of clinical non-responders ([4]; six stage IV melanoma patients): very low or no response
PGLLGASVLGLDDIH (listed as Homo sapiens) [SEQ ID NO. 55] |  |  |  |  |  |  |  |  |  |  |  |  |  |  |  |  |  |  |  |  | proliferative T-cell response (detected or not) ([4]; pancreas cancer patient vaccinated with DC/hTERT mRNA): recognized by T cells
RTFVLRVRAQDPPPE (listed as Homo sapiens) [SEQ ID NO. 7] | very low or no response | 20.6 | 1.3 | 1 | 1.2 | 0.4 | 1.1 | 0.8 | 0.9 | 1 | 0.7 | 1 | 1.2 | 4.8 | 4.9 | 2.8 | 5.7 | 2.5 | 5/7 | 1/10 | response of clinical non-responders ([4]; six stage IV melanoma patients): very low or no response
